Results as given in US12559461B2, “Antibiotic adjuvant compounds” (UNIVERSITY OF NOTRE DAME DU LAC, priority 2020, dated 2026).
Structures can show the parent of a compound that is named as a salt. Where two headings read alike, the source gives them in different places. Each block holds one molecule with its values, some of them ahead of it.

How the values were obtained:
AB5075 [1] = test: Broth microdilution MIC of compound alone (standalone toxicity); format: cell-based, Acinetobacter baumannii
Protocol: (§1) Bacterial Strains and Antimicrobial Agents. Acinetobacter baumannii clinical isolate 5075 was obtained from Dr. Colin Manoil at the University of Washington. Colonies were grown on lysogeny broth (LB) agar. Cation-adjusted Mueller-Hinton Broth (CAMHB) (catalog number 212322) were purchased from BD Diagnostics. LB broth was purchased from Fisher Scientific (catalog number BP9722-2). […] Colistin sulfate salt (catalog number C4461) was purchased from Sigma Aldrich. All assays were completed in duplicate and repeated at least two separate times. All compounds were dissolved as their HCl salts in molecular biology grade DMSO as 10 or 100 mM stock solutions and stored at −20° C. Colistin was dissolved in sterile water while clarithromycin was dissolved in molecular biology grade DMSO.
Broth microdilution method for MIC determination. Day cultures (6 h) of each bacterial strain in cation adjusted Mueller Hinton II broth (CAMHB, Fisher Scientific U.S.) were subcultured to 5×10^5 CFU/mL in CAMHB. Aliquots (1 mL) were placed in culture tubes and compound was added from 10 mM stock samples in DMSO, such that compound concentration equaled highest concentration tested (200 μM). Samples were then aliquoted (200 μL) into the first wells of a 96-well plate, with all remaining wells being filled with 100 μL of initial bacterial subculture. Row one wells were mixed five times, before 100 μL was transferred to row two. Row two was then mixed five times, and 100 μL was transferred to row three. This process was repeated until the final row had been mixed; this served to serially dilute the compound. Plates were then covered with GLAD Press n'Seal and incubated under stationary conditions at 37° C. for 16 h. MIC values were then recorded as the lowest concentration at which no bacterial growth was observed.

AB5075 [2] = test: Broth microdilution clarithromycin (CLR) potentiation and dose-response of adjuvant; format: cell-based, Acinetobacter baumannii; settings: for adjuvant activity (CLR potentiation), rank by amide linker position: dosed at 30 μM
Protocol: as §1
Broth microdilution method for antibiotic potentiation. Day cultures (6 h) of bacteria in CAMHB were subcultured to 5×10^5 CFU/mL in CAMHB. Aliquots (4 mL) were placed in culture tubes and dosed with compound from 10 mM stock samples to give the desired concentration of the compound to be tested against the particular bacterial strain; this insured non-toxic DMSO concentrations ≤0.3% in each well. 1 mL of the resulting solution was placed in a separate culture and dosed with antibiotic at the highest concentration to be tested. Bacteria treated with antibiotic alone served as the control. Row one of a 96-well plate was filled with 200 μL of the antibiotic/2-AI solution, and rows 2-12 were filled with 100 μL each of the remaining 4 mL of bacterial subculture containing adjuvant at the desired concentration, except for the control lane which contained only bacterial subculture. Row one was then mixed five times, and 100 μL was transferred to row two, which was then mixed five times before being transferred to row three. This process was repeated until all rows had been mixed, except for row twelve which would have only 2-AI to serve as a control to monitor potential toxicity. The 96-well plate was then covered in Glad Press n'Seal and incubated under stationary conditions at 37° C. for 16 h. MIC values were determined as the lowest concentration at which no bacterial growth was observed, and fold reductions were determined by comparison to antibiotic control lane.
Dose-response of Adjuvant Assay. The procedure for ‘broth microdilution method for antibiotic potentiation’ was followed using 4 mL aliquots of adjuvant at various concentrations: 0, 5, 7.5, 10, 15, 20, 25, and 30 μM.

Compound: Nc1nc(-c2ccc(NC(=O)c3ccccc3)cc2)c[nH]1 [Compound 4a, N-(4-(2-amino-1H-imidazol-4-yl)phenyl)benzamide hydrochloride]
MIC (AB5075 [1]; Acinetobacter baumannii): > 200 µM

CLR MIC (AB5075 [2]; compound tested at 30 μM): 32 µg/mL
Compound: Cl.Nc1nc(-c2ccc(NC(=O)c3cccc(I)c3)cc2)c[nH]1 [Compound 4b]
MIC (AB5075 [1]): >200 µM

CLR MIC (AB5075 [2]; compound tested at 30 μM): 32 µg/mL
Compound: Cl.Nc1nc(-c2ccc(NC(=O)c3cccc(Br)c3)cc2)c[nH]1 [Compound 4c]
MIC (AB5075 [1]): >200 µM

Compound: Cl.Nc1nc(-c2ccc(NC(=O)c3cccc(Cl)c3)cc2)c[nH]1 [Compound 4d, 4-(2-Amino-3H-imidazol-4-yl)phenyl]-3-chlorobenzamide hydrochloride]
MIC (AB5075 [1]; Acinetobacter baumannii): 200 µM

CLR MIC (AB5075 [2]; compound tested at 10 μM): 16 µg/mL
CLR MIC (AB5075 [2]; compound tested at 20 μM): 4 µg/mL
Compound: Cl.Nc1nc(-c2ccc(NC(=O)c3cccc(Cl)c3)cc2)c[nH]1 [Compound 4d]

CLR MIC (AB5075 [2]; compound tested at 30 μM): 16 µg/mL
Compound: Cl.Nc1nc(-c2ccc(NC(=O)c3cccc(F)c3)cc2)c[nH]1 [Compound 4e]
MIC (AB5075 [1]): >200 µM

CLR MIC (AB5075 [2]; compound tested at 30 μM): 32 µg/mL
Compound: Cl.Nc1nc(-c2ccc(NC(=O)c3ccc(C(F)(F)F)cc3)cc2)c[nH]1 [Compound 4f]
MIC (AB5075 [1]): >200 µM

CLR MIC (AB5075 [2]; compound tested at 30 μM): 16 µg/mL
Compound: Cl.Nc1nc(-c2ccc(NC(=O)c3ccc(I)cc3)cc2)c[nH]1 [Compound 4g]
MIC (AB5075 [1]): >200 µM

Compound: Nc1nc(-c2ccc(NC(=O)c3ccc(Br)cc3)cc2)c[nH]1 [Compound 4h, N-(4-(2-amino-1H-imidazol-4-yl)phenyl)-4-bromobenzamide hydrochloride]
MIC (AB5075 [1]; Acinetobacter baumannii): > 200 µM

Compound: Cl.Nc1nc(-c2ccc(NC(=O)c3ccc(Cl)cc3)cc2)c[nH]1 [Compound 4i, 4-(2-Amino-3H-imidazol-4-yl)phenyl]-4-chlorobenzamide hydrochloride]
MIC (AB5075 [1]; Acinetobacter baumannii): > 200 µM

CLR MIC (AB5075 [2]; compound tested at 10 μM): 16 µg/mL
CLR MIC (AB5075 [2]; compound tested at 20 μM): 4 µg/mL
Compound: Cl.Nc1nc(-c2ccc(NC(=O)c3ccc(Cl)cc3)cc2)c[nH]1 [Compound 4i]

CLR MIC (AB5075 [2]; compound tested at 30 μM): 8 µg/mL
Compound: Cl.Nc1nc(-c2ccc(NC(=O)c3ccc(F)cc3)cc2)c[nH]1 [Compound 4j, N-(4-(2-amino-1H-imidazol-4-yl)phenyl)-4-fluorobenzamide hydrochloride]
MIC (AB5075 [1]; Acinetobacter baumannii): > 200 µM

Compound: Cl.Nc1nc(-c2ccc(NC(=O)c3cc(C(F)(F)F)cc(C(F)(F)F)c3)cc2)c[nH]1 [Compound 4l, 4-(2-Amino-3H-imidazol-4-yl)phenyl]-3,5-(bistrifluoromethyl)benzamide hydrochloride]
MIC (AB5075 [1]; Acinetobacter baumannii): 50 µM

CLR MIC (AB5075 [2]; compound tested at 15 μM): 8 µg/mL
Compound: Cl.Nc1nc(-c2ccc(NC(=O)c3cc(C(F)(F)F)cc(C(F)(F)F)c3)cc2)c[nH]1 [Compound 4l]

CLR MIC (AB5075 [2]; compound tested at 30 μM): 2 µg/mL
Compound: Cc1cc(C)cc(C(=O)Nc2ccc(-c3c[nH]c(N)n3)cc2)c1.Cl [Compound 4m, N-(4-(2-amino-1H-imidazol-4-yl)phenyl)-3,5-dimethylbenzamide hydrochloride]
MIC (AB5075 [1]; Acinetobacter baumannii): > 200 µM

CLR MIC (AB5075 [2]; compound tested at 5 μM): 16 µg/mL
CLR MIC (AB5075 [2]; compound tested at 7.5 μM): 4 µg/mL
CLR MIC (AB5075 [2]; compound tested at 10 μM): 1 µg/mL
Fold Reduction of CLR MIC (AB5075 [2]; compound tested at 10 μM): 32 fold
CLR MIC (AB5075 [2]; compound tested at 15 μM): 0.5 µg/mL
Compound: Cl.Nc1nc(-c2ccc(NC(=O)c3ccc(C(F)(F)F)c(F)c3)cc2)c[nH]1 [Compound 4p, N-(4-(2-amino-1H-imidazol-4-yl)phenyl)-3-fluoro-4-(trifluoromethyl)benzamide hydrochloride]
MIC (AB5075 [1]; Acinetobacter baumannii): 50 µM

Fold Reduction of CLR MIC (AB5075 [2]; compound tested at 10 μM): two-fold
CLR MIC (AB5075 [2]; compound tested at 20 μM): 8 µg/mL
CLR MIC (AB5075 [2]; compound tested at 30 μM): 4 µg/mL
Compound: Cl.Nc1nc(-c2c(F)cc(NC(=O)c3cc(Cl)cc(Cl)c3)cc2F)c[nH]1 [Compound 13, N-(4-(2-amino-1H-imidazol-4-yl)-3,5-difluorophenyl)-3,5-dichlorobenzamide hydrochloride]

Compound: Nc1nc(-c2cccc(NC(=O)c3cc(F)cc(F)c3)c2)c[nH]1 [Compound 18]
adjuvant activity (CLR potentiation), rank by amide linker position (AB5075 [2]): 4k (highest adjuvant activity) >meta amide linker 18>ortho amide linker 19

Compound: Nc1nc(-c2ccccc2NC(=O)c2cc(F)cc(F)c2)c[nH]1 [Compound 19]
adjuvant activity (CLR potentiation), rank by amide linker position (AB5075 [2]): lowest adjuvant activity
